Earlier results, collected in patent US10016482B2, “Insulin independence among patients with diabetes utilizing an optimized hamster REG3 gamma peptide” (priority 2014, dated 2018).
Read-outs that look alike come from different tables or passages of the source. No end group written: not given here.

How the values were obtained:
[1] = system: new small islets developing from non-endocrine tissue
[2] = system: patients with type 1 diabetes; conditions: for study subjects / patients dropping out of the clinical trials due to local side-effects: man, local injection site reactions (pain, bruising, infection, skin site reactions)
[3] = system: human extra-islet pancreatic exocrine tissue; conditions: in vitro; exocrine ductal tissue separated from endocrine beta cells

IGLHDPSHGTLPNGS [hamster Reg3 gamma peptide, native 15 amino acid hamster Reg3 gamma peptide]
levels of new islet markers (NGN3, NKX6.1, SOX9, INS) ([1]; five days after treatment): increased levels | increase in the volume of new small islets ([1]; islets developing from non-endocrine tissue): 2 fold | increase in endogenous insulin production ([2]; by day 54, type 1 patients with no baseline c-peptide): 27% | study subjects / patients dropping out of the clinical trials due to local side-effects ([2]; listed as 15-amino acid hamster Reg3 gamma peptide): ⅓ | study subjects / patients dropping out of the clinical trials due to local side-effects ([2]; listed as 15 amino acid hamster Reg3gamma peptide): more than ⅓ | study subjects / patients dropping out of the clinical trials due to local side-effects ([2]; listed as hamster Reg3 gamma 15 amino acid peptide): ⅓ | rise in stimulated c-peptide ([2]; type 1 patients with no detectable c-peptide at baseline): 27% | insulin requirements ([2]; type 1 patients, within 54 days of usage): significant reduction | transformation of exocrine ductal tissue [3]: transform into new beta cells
